# US20240025884A1 (Dong-A ST Co., Ltd., priority 2022, published 2024)
# Target: GCN2 (Homo sapiens (Human), UniProt Q9P2K8)
# Assay: GCN2 Biochemical Assay (TR-FRET, GFP-eIF2S1 substrate phosphorylation)
# Conditions: read-out: IC50 (GCN2 Inhibitory Activity)
# Method in brief: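 TR-FRET readout (Ex 340, Em 490/520 nm) after 2–3 h with Tb-labelled phospho-eIF2S1 antibody in stop mix, following a 70 min room-temperature kinase step. Reaction: in-house GCN2, GFP-eIF2S1, ATP, tRNA in Tris pH 7.5 (2× stocks 1.6 nM, 50 nM, 0.2 mM); compounds tested at 10 concentrations, with a phospho-substrate artifact counter-plate.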
# GCN2, sequence (Q9P2K8 whole entry): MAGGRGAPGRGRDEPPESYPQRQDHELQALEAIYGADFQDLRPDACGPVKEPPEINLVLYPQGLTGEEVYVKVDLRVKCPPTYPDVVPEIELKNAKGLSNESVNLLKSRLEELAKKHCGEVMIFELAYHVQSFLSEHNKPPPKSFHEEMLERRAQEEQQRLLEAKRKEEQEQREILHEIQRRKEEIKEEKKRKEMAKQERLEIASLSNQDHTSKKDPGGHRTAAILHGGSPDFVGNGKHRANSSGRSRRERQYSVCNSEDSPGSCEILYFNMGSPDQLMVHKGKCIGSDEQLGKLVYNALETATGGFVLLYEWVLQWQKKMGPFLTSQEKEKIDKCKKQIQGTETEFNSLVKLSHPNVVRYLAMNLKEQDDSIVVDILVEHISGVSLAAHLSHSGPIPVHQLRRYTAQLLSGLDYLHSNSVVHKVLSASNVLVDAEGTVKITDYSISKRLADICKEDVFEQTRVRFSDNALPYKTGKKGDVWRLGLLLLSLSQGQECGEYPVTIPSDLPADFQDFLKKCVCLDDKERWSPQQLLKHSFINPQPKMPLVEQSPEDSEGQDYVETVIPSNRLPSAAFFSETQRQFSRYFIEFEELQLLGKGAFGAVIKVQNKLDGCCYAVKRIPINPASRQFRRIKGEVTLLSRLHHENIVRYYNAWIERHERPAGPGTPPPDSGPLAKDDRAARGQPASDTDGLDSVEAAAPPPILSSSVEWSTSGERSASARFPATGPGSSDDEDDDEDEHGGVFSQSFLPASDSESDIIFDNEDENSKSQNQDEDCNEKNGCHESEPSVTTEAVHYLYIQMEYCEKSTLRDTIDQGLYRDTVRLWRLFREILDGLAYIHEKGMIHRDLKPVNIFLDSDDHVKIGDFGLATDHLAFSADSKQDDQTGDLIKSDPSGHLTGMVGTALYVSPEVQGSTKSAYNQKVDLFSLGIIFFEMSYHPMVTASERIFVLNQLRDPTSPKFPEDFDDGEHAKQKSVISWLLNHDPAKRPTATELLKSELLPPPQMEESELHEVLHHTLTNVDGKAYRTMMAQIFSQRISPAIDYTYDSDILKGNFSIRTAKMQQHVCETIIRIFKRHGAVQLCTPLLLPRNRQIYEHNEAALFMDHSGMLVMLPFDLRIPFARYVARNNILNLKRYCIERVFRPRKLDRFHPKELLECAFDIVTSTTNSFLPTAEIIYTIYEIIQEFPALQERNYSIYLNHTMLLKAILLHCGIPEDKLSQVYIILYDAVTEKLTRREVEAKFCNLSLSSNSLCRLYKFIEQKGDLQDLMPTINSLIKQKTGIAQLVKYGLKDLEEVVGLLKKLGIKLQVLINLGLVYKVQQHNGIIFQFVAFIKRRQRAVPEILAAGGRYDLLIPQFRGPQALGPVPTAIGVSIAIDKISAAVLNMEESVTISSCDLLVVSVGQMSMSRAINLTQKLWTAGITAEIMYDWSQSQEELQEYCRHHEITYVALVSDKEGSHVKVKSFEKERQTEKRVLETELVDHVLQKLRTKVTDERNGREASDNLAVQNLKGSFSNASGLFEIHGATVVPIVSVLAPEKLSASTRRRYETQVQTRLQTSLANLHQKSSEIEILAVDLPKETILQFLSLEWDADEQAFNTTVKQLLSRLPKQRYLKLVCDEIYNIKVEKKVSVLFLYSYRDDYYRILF
row,SMILES,IC50 [nM]
1,"Cc1cnc(Nc2cc(C)n(C)n2)nc1-c1c[nH]c2c(N3Cc4c(NC(=O)c5ccccn5)cccc4C3=O)cccc12 [Example 297, N-(2-(3-(2-((1,5-dimethyl-1H-pyrazol-3-yl)amino)-5-methylpyrimidin-4-yl)-1H-indol-7-yl)-1-oxoisoindolin-4-yl)picolinamide]",< 10
2,"Cc1cnc(Nc2cc(C)n(C)n2)nc1-c1c[nH]c2c(N3Cc4c(NC(=O)c5cccnc5)cccc4C3=O)cccc12 [Example 298, N-(2-(3-(2-((1,5-dimethyl-1H-pyrazol-3-yl)amino)-5-methylpyrimidin-4-yl)-1H-indol-7-yl)-1-oxoisoindolin-4-yl)nicotinamide]",< 10
3,"Cc1cnc(Nc2cc(C)n(C)n2)nc1-c1c[nH]c2c(N3Cc4c(NC(=O)c5cocn5)cccc4C3=O)cccc12 [Example 299, N-(2-(3-(2-((1,5-dimethyl-1H-pyrazol-3-yl)amino)-5-methylpyrimidin-4-yl)-1H-indol-7-yl)-1-oxoisoindolin-4-yl)oxazole-4-carboxamide]",< 10
4,"Cc1cnc(Nc2cc(C)n(C)n2)nc1-c1c[nH]c2c(N3Cc4c(NC(=O)C5CC5)cccc4C3=O)cccc12 [Example 300, N-(2-(3-(2-((1,5-dimethyl-1H-pyrazol-3-yl)amino)-5-methylpyrimidin-4-yl)-1H-indol-7-yl)-1-oxoisoindolin-4-yl)cyclopropanecarboxamide]",< 10
5,"Cc1cnc(Nc2cc(C)n(C)n2)nc1-c1c[nH]c2c(N3Cc4c(NC(=O)c5ccncc5)cccc4C3=O)cccc12 [Example 301, N-(2-(3-(2-((1,5-dimethyl-1H-pyrazol-3-yl)amino)-5-methylpyrimidin-4-yl)-1H-indol-7-yl)-1-oxoisoindolin-4-yl)isonicotinamide]",< 10
6,"Cc1cnc(Nc2cc(C)n(C)n2)nc1-c1c[nH]c2c(N3Cc4c(NC(=O)c5ccnnc5)cccc4C3=O)cccc12 [Example 302, N-(2-(3-(2-((1,5-dimethyl-1H-pyrazol-3-yl)amino)-5-methylpyrimidin-4-yl)-1H-indol-7-yl)-1-oxoisoindolin-4-yl)pyridazine-4-carboxamide]",< 10
7,"Cc1cnc(Nc2cc(C)n(C)n2)nc1-c1c[nH]c2c(N3Cc4c(NC(=O)C5CCC(C)CC5)cccc4C3=O)cccc12 (centres unmarked) [Example 303, N-(2-(3-(2-((1,5-dimethyl-1H-pyrazol-3-yl)amino)-5-methylpyrimidin-4-yl)-1H-indol-7-yl)-1-oxoisoindolin-4-yl)-4-methylcyclohexane-1-carboxamide]",< 10
8,"Cc1cnc(Nc2cc(C)n(C)n2)nc1-c1c[nH]c2c(N3Cc4c(NC(=O)Cc5cccc(O)c5)cccc4C3=O)cccc12 [Example 304, N-(2-(3-(2-((1,5-dimethyl-1H-pyrazol-3-yl)amino)-5-methylpyrimidin-4-yl)-1H-indol-7-yl)-1-oxoisoindolin-4-yl)-2-(3-hydroxyphenyl)acetamide]",< 10
9,"Cc1cnc(Nc2cc(C)n(C)n2)nc1-c1c[nH]c2c(N3Cc4c(NC(=O)Cc5ccccc5)cccc4C3=O)cccc12 [Example 305, N-(2-(3-(2-((1,5-dimethyl-1H-pyrazol-3-yl)amino)-5-methylpyrimidin-4-yl)-1H-indol-7-yl)-1-oxoisoindolin-4-yl)-2-phenylacetamide]",< 10
10,"Cc1cnc(Nc2cc(C)n(C)n2)nc1-c1c[nH]c2c(N3Cc4c(NC(=O)C5CCN(C)CC5)cccc4C3=O)cccc12 [Example 306, N-(2-(3-(2-((1,5-dimethyl-1H-pyrazol-3-yl)amino)-5-methylpyrimidin-4-yl)-1H-indol-7-yl)-1-oxoisoindolin-4-yl)-1-methylpiperidine-4-carboxamide]",< 10
11,"Cc1cnc(Nc2cc(C)n(C)n2)nc1-c1c[nH]c2c(N3Cc4c(NC(=O)C5CCCN(C)C5)cccc4C3=O)cccc12 (centres unmarked) [Example 307, N-(2-(3-(2-((1,5-dimethyl-1H-pyrazol-3-yl)amino)-5-methylpyrimidin-4-yl)-1H-indol-7-yl)-1-oxoisoindolin-4-yl)-1-methylpiperidine-3-carboxamide]",< 10
12,"Cc1cnc(Nc2cc(C)n(C)n2)nc1-c1c[nH]c2c(N3Cc4c(NC(=O)C5CCC(=O)N5)cccc4C3=O)cccc12 (centres unmarked) [Example 308, N-(2-(3-(2-((1,5-dimethyl-1H-pyrazol-3-yl)amino)-5-methylpyrimidin-4-yl)-1H-indol-7-yl)-1-oxoisoindolin-4-yl)-5-oxopyrrolidine-2-carboxamide]",< 10
13,"Cc1cnc(Nc2cc(C)n(C)n2)nc1-c1c[nH]c2c(N3Cc4c(NC(=O)C5CC=CCC5)cccc4C3=O)cccc12 (centres unmarked) [Example 309, N-(2-(3-(2-((1,5-dimethyl-1H-pyrazol-3-yl)amino)-5-methylpyrimidin-4-yl)-1H-indol-7-yl)-1-oxoisoindolin-4-yl)cyclohex-3-ene-1-carboxamide]",10 to 100
14,"Cc1cnc(Nc2cc(C)n(C)n2)nc1-c1c[nH]c2c(N3Cc4c(NC(=O)C5CC=CC5)cccc4C3=O)cccc12 [Example 310, N-(2-(3-(2-((1,5-dimethyl-1H-pyrazol-3-yl)amino)-5-methylpyrimidin-4-yl)-1H-indol-7-yl)-1-oxoisoindolin-4-yl)cyclopent-3-ene-1-carboxamide]",< 10
15,"Cc1cnc(Nc2cc(C)n(C)n2)nc1-c1c[nH]c2c(N3Cc4c(NC(=O)C5(C)CC=CC5)cccc4C3=O)cccc12 [Example 311, N-(2-(3-(2-((1,5-dimethyl-1H-pyrazol-3-yl)amino)-5-methylpyrimidin-4-yl)-1H-indol-7-yl)-1-oxoisoindolin-4-yl)-1-methylcyclopent-3-ene-1-carboxamide]",10 to 100
16,"Cc1cnc(Nc2cc(C)n(C)n2)nc1-c1c[nH]c2c(N3Cc4c(NC(=O)C5CCCCCC5)cccc4C3=O)cccc12 [Example 312, N-(2-(3-(2-((1,5-dimethyl-1H-pyrazol-3-yl)amino)-5-methylpyrimidin-4-yl)-1H-indol-7-yl)-1-oxoisoindolin-4-yl)cycloheptanecarboxamide]",10 to 100
17,"Cc1cnc(Nc2cc(C)n(C)n2)nc1-c1c[nH]c2c(N3Cc4c(NC(=O)N5CCNC5=O)cccc4C3=O)cccc12 [Example 313, N-(2-(3-(2-((1,5-dimethyl-1H-pyrazol-3-yl)amino)-5-methylpyrimidin-4-yl)-1H-indol-7-yl)-1-oxoisoindolin-4-yl)-2-oxoimidazolidine-1-carboxamide]",< 10
18,"Cc1cnc(Nc2cc(C)n(C)n2)nc1-c1c[nH]c2c(N3Cc4c(NC(=O)C5Cc6ccccc6C5)cccc4C3=O)cccc12 [Example 314, N-(2-(3-(2-((1,5-dimethyl-1H-pyrazol-3-yl)amino)-5-methylpyrimidin-4-yl)-1H-indol-7-yl)-1-oxoisoindolin-4-yl)-2,3-dihydro-1H-indene-2-carboxamide]",10 to 100
19,"Cc1cnc(Nc2cc(C)n(C)n2)nc1-c1c[nH]c2c(N3Cc4c(NC(=O)[C@@H]5CCNC5)cccc4C3=O)cccc12 [Example 315, (R)-N-(2-(3-(2-((1,5-dimethyl-1H-pyrazol-3-yl)amino)-5-methylpyrimidin-4-yl)-1H-indol-7-yl)-1-oxoisoindolin-4-yl)pyrrolidine-3-carboxamide]",< 10
20,"Cc1cnc(Nc2cc(C)n(C)n2)nc1-c1c[nH]c2c(N3Cc4c(NC(=O)[C@H]5CCNC5)cccc4C3=O)cccc12 [Example 316, (S)-N-(2-(3-(2-((1,5-dimethyl-1H-pyrazol-3-yl)amino)-5-methylpyrimidin-4-yl)-1H-indol-7-yl)-1-oxoisoindolin-4-yl)pyrrolidine-3-carboxamide]",10 to 100
